# Measured values: patent US7988950B2, “Contrast agents endowed with high relaxivity for use in magnetic resonance imaging (MRI) which contain a chelating moiety with polyhydroxylated substituents” (Bracco Imaging S.p.A., priority 2004, dated 2011)
# Assay: Relaxivity determination (r1p) of Gd complexes at 298 K, 20 MHz, pH 7
# Assay type: physicochemical
# Conditions: Table 5; 298 K, 20 MHz, pH 7; q=1 derivatives of the DTPA-monophosphonate backbone
# Text: As far as the relaxation enhancement property is concerned, a paramagnetic Gd(III) complex is characterized by its relaxivity (r1p) which represents the increase of the proton relaxation rate of an aqueous solution of the Gd(III) complex in comparison to the proton relaxation rate of neat water (R1^o). The relaxivity is usually measured at 298 K and 20 MHz (0.5 T).
# In order to best evaluate the relaxivity properties and the parameters affecting the relaxivity of the agents of the invention, some comparative tests have been performed. In a first experiment, the relaxivity of a number of Gd-based chelated compounds having different molecular weight, all derived from the following [Gd(DTPA-monophosphonate)]^3− basic backbone structure (r1p at 20 MHz and 298K: 6.1 mM^−1s^−1) of formula
# Tested compounds include the Gd-complex of the chelating compounds 1b and 2b of the invention (hereinafter Gd-1b and Gd-2b) as well as a number of different derivatives of the aforementioned backbone moiety selected in order to cover a range of molecular weights of up to about 1800 Dalton. The relaxivity of all of the tested compounds were measured at 298 K and 20 MHz and pH 7. The obtained values, listed in table 5 below (together with the structure of the compounds) have also been plotted against the MW of the complexes (see FIG. 1).
# A second experiment was performed to test the relaxivity of different compounds of the invention, marketed NSA, known LDA and other systems, all containing one coordinated water molecule (q=1). The data were registered at 298K and 20 MHz and pH=7, and plotted against their corresponding MW. Relaxivity data relating to LDA P760 and P792 (LDA contrast agents) are based on literature cited below.
# In addition to the above, please find below as per table 7, other relaxivity values, measured as above indicated, for some other representative compounds of the invention.
row,R1p [mM⁻¹ s⁻¹],Molecule
1,7.9,O=C(O)CN(CCN(CCN(CC(=O)O)[C@@H](COCc1ccccc1)C(=O)O)CP(=O)(O)O)[C@@H](COCc1ccccc1)C(=O)O [B 22666]
2,7.7,O=C(O)CN(CCN(CCN(CC(=O)O)[C@@H](Cc1ccccc1)C(=O)O)CP(=O)(O)O)[C@@H](Cc1ccccc1)C(=O)O [B 22606]
3,7.9,O=C(O)CN(CCN(CCN(CC(=O)O)[C@@H](Cc1c[nH]c2ccccc12)C(=O)O)CP(=O)(O)O)C(Cc1c[nH]c2ccccc12)C(=O)O (stereo partly drawn) [B 22836]

# Same assay, conditions: Table 6; 298K, 20 MHz, pH=7; q=1
row,R1p [mM⁻¹ s⁻¹],Molecule
1,5.5,O=C(O)CN1CCN(CC(=O)O)CCN(C(COCc2ccccc2)C(=O)O)CCN(CC(=O)O)CC1 (stereo not drawn) [Compound B19106]
2,19.6,O=C(CCC(C(=O)O)N1CCN(C(CCC(=O)NCC(COCC(COC(CO)CO)COC(CO)CO)COCC(COC(CO)CO)COC(CO)CO)C(=O)O)CCN(C(CCC(=O)NCC(COCC(COC(CO)CO)COC(CO)CO)COCC(COC(CO)CO)COC(CO)CO)C(=O)O)CCN(C(CCC(=O)NCC(COCC(COC(CO)CO)COC(CO)CO)COCC(COC(CO)CO)COC(CO)CO)C(=O)O)CC1)NCC(COCC(COC(CO)CO)COC(CO)CO)COCC(COC(CO)CO)COC(CO)CO (stereo not drawn) [Gd-3c]
3,6.5,O=C(O)CN1CCN(C(COCc2ccccc2)C(=O)O)CCN(CC(=O)O)CCN(C(COCc2ccccc2)C(=O)O)CC1 (stereo not drawn) [Compound B19236]
4,7.5,O=C(O)CN1CCN(C(COCc2ccccc2)C(=O)O)CCN(C(COCc2ccccc2)C(=O)O)CCN(C(COCc2ccccc2)C(=O)O)CC1 (stereo not drawn) [Compound B19406]
5,15,CC(CO)(CO)COCC(CNC(=O)CCC(C(=O)O)N1CCN(C(CCC(=O)NCC(COCC(C)(CO)CO)COCC(C)(CO)CO)C(=O)O)CCN(C(CCC(=O)NCC(COCC(C)(CO)CO)COCC(C)(CO)CO)C(=O)O)CCN(C(CCC(=O)NCC(COCC(C)(CO)CO)COCC(C)(CO)CO)C(=O)O)CC1)COCC(C)(CO)CO (stereo not drawn) [Gd-2c]
6,13.84,O=C(CCC(C(=O)O)N1CCN(C(CCC(=O)NCC(COC(CO)CO)COC(CO)CO)C(=O)O)CCN(C(CCC(=O)NCC(COC(CO)CO)COC(CO)CO)C(=O)O)CCN(C(CCC(=O)NCC(COC(CO)CO)COC(CO)CO)C(=O)O)CC1)NCC(COC(CO)CO)COC(CO)CO (stereo not drawn) [Gd-1c]
7,4.7,O=C(O)CN(CCN(CC(=O)O)CC(=O)O)CCN(CC(=O)O)CC(=O)O [Gd-DTPA]
8,4.7,O=C(O)CN1CCN(CC(=O)O)CCN(CC(=O)O)CCN(CC(=O)O)CC1 [Gd-DOTA]

# Same assay, conditions: Table 7; measured as above indicated (298 K, 20 MHz)
row,R1p [mM⁻¹ s⁻¹],Molecule
1,16.7,CC1(N(CC(=O)O)CC(=O)O)CN(C(CCC(=O)N(CCN(CCC(=O)NC(CO)(CO)CO)CCC(=O)NC(CO)(CO)CO)CCN(CCC(=O)NC(CO)(CO)CO)CCC(=O)NC(CO)(CO)CO)C(=O)O)CCN(C(CCC(=O)N(CCN(CCC(=O)NC(CO)(CO)CO)CCC(=O)NC(CO)(CO)CO)CCN(CCC(=O)NC(CO)(CO)CO)CCC(=O)NC(CO)(CO)CO)C(=O)O)C1 (stereo not drawn) [Gd-15a]
2,24,O=C(O)CCC(C(=O)O)N1CCN(Cc2cccc(C(=O)NCC(CNC(=O)C(O)C(O)C(O)C(O)CO)(CNC(=O)C(O)C(O)C(O)C(O)CO)CNC(=O)C(O)C(O)C(O)C(O)CO)c2)CCN(C(CCC(=O)O)C(=O)O)CCN(C(CCC(=O)O)C(=O)O)CC1 (stereo not drawn) [Gd-1d]

row,Molecule,R1p [mM⁻¹ s⁻¹]
1,O=C(CC[C@@H](C(=O)O)N1CCN([C@@H](CCC(=O)NC(COC2OC(CO)C(O)C(O)C2O)(COC2OC(CO)C(O)C(O)C2O)COC2OC(CO)C(O)C(O)C2O)C(=O)O)CCN([C@@H](CCC(=O)NC(COC2OC(CO)C(O)C(O)C2O)(COC2OC(CO)C(O)C(O)C2O)COC2OC(CO)C(O)C(O)C2O)C(=O)O)CCN([C@@H](CCC(=O)NC(COC2OC(CO)C(O)C(O)C2O)(COC2OC(CO)C(O)C(O)C2O)COC2OC(CO)C(O)C(O)C2O)C(=O)O)CC1)NC(COC1OC(CO)C(O)C(O)C1O)(COC1OC(CO)C(O)C(O)C1O)COC1OC(CO)C(O)C(O)C1O (stereo partly drawn) [Gd-7c],20.4

# Assay: 1/T1 NMRD profiles / relaxivity over a range of magnetic field strengths
# Assay type: physicochemical
# Conditions: 25° C., 1 mM aqueous solution; from 0.2 to 3 MHz
# Text: As an example, the relaxivity profile of the gadolinium complex of the chelating ligand of the invention 2b (hereinafter referred to as Gd-2b), in the above magnetic field range, has been compared with that of a marketed NSA, i.e. Magnevist®, and that of a blood pool agent, i.e. the macromolecular adduct between Gd-DTPA(BOM)3 and BSA (Bovine Serum Albumin) (FIG. 6).
# The corresponding profile for the above blood pool agent is quite different.
# The stability of the relaxivity properties shown by the compounds of the invention was tested. In a first experiment, the 1/T1 NMRD profiles for some compounds of the invention were acquired over a range of magnetic field strengths ranging from 0.01 to 130 MHz. The profile shown by the Gd-1b chelated compound of the invention is included in FIG. 4, while corresponding profiles for chelated compounds Gd-1c, Gd-2c and Gd-3c are included in FIGS. 5 and 5 bis. A comparison has been also performed for compound Gd-2b over a corresponding profile registered for GD-DTPA (Magnevist®), a marketed NSA, and for GD-DOTA-BSA, a well known blood pool agent.
# Conversely, the relaxivity improvement shown by the blood pool agent rapidly falls dawn over the same range of magnetic field strength.
row,Molecule,relaxivity profile over magnetic field strength (NMRD)
1,Gd-DTPA,quite stable though very low
